Results on four molecules are retold here after patent publication US7129368B2, “Platinum carboxylate anticancer compounds” (Sonus Pharmaceuticals, Inc., priority 2004, dated 2006).

What is called GI50 is the concentration giving 50% growth inhibition.

Data set [1] has as its system NCI-H460 non-small cell lung cancer cells. In words: ALAMAR BLUE cytotoxicity assay in NCI-H460 cells. In kind it is cell-based. The following applies: H-460, ALAMAR BLUE, 48 hours incubation with drug. How it is done:
(§1) ALAMAR BLUE Assay. […] Cytotoxicity was measured in two cell lines: a colorectal carcinoma cell line (HCT-116); and a non-small cell lung cancer cell line (NCI-H460). The marker used to quantify cell growth inhibition was ALAMAR BLUE, a non-fluorescent blue dye that is reduced to a fluorescent red product by viable cells. The amount of fluorescence is proportional to the number of viable cells.
(§2) Screening in HCT-116 cells. HCT-116 colorectal carcinoma cells (ATCC # CCL-247) were inoculated into a set of twenty-four 96-well microtiter plates containing 100 μl of McCoy's 5A media (HyClone, Logan, Utah) per well to a plating density of 7500 cells per well. After cell inoculation, the microtiter plates were incubated at 37° C., 5% CO2, 95% air and 100% relative humidity for 24 hours. After 24 hours incubation, ALAMAR BLUE reagent (Biosource, Camarillo, Calif.) was added to two plates to a final concentration of 10% v/v in each well. The plates were returned to the incubator for 4 hours and then read in a Perkin Elmer HTS 7000 Bio Assay Reader using an excitation wavelength of 535 nm and an emission wavelength of 590 nm to determine the cell population at the time of drug addition—time zero.
(§3) Two no-drug control plates were also prepared.
(§4) Following drug addition, the plates were incubated for an additional 48 hours at the conditions above.
(§5) After 48 hours of incubation the plates were removed and ALAMAR BLUE reagent was added to a final concentration of 10% v/v to each well. The plates were returned to the incubator for 4 hours and read in the Bio Assay Reader as described above.
Screening in NCI-H460 cells. The screening protocol above was repeated using NCI-H460 non-small cell lung cancer cells (ATCC # HTB-177) plated to a density of 10,000 cells per well in RPMI media (Mediatech, Inc., Herndon, Va.).
On the technique in general: Resazurin is reduced to fluorescent resorufin, in cell work by metabolically active cells.

Data set [2] has as its system HCT-116 colorectal carcinoma cells. The experiment in a line: ALAMAR BLUE cytotoxicity assay in HCT-116 cells. The data set is classed as cell-based. The following applies: HCT-116, ALAMAR BLUE, 48 hours incubation with drug. Here is the method:
as §1, §2, §3, §4, §5

Data set [3] has as its system NCI-H69 small cell lung cancer cell line. In words: MTS cytotoxicity assay in NCI-H69 cells. In kind it is cell-based. Conditions: 72 hours of treatment, read-out: Growth Inhibition (GI50). Here is the method: (§6) MTS Assay. […] Cytotoxicity was measured in six cell lines: two colorectal carcinoma cell lines, HT29 (ATCC # CCL-218) and HCT-116 (ATCC # CCL-247); two small cell lung cancer cell lines, NCI-H69 (ATCC # HTB-119) and NCI-H69/AR (ATCC # CRL-11351); and two ovarian cancer cell lines, A2780 (ECACC # 93112519) and A2780/DPPt (similar strain, A2780 cis, available at ECACC # 93112517). Viable cell number was measured using the MTS cell viability assay ([…] 96 AQueous One Solution Cell Proliferation Assay kit available from Promega, USA). Cell growth inhibition was quantified by measuring absorbance at 490 nm, which is directly proportional to the number of living cells in culture.
(§7) The platinum compounds were prepared as 10 mM stock solutions in water containing 5% dextrose (D5W). Cisplatin was prepared in saline. Dosing solutions were prepared by serial dilution of the stock solutions in cell culture medium to provide final concentrations of 0.006–100 μM.
(§8) All tumor lines were propagated under sterile conditions and incubated at 37° C. in HEPA-filtered CO2 tissue culture incubators with 5% CO2 and 95% humidity in colorless RPMI 1640 medium (Mediatech, Hemdon, Va.) containing 5% fetal bovine serum (complete medium). […]
(§9) Viable cell number was measured by the MTS dye conversion assay after a total of 72 hours of treatment. […] The absorbance was measured at 490 nm on a Coulter microplate reader.
Background: Tetrazolium dyes change colour on reduction, which living cells bring about.

The test system of data set [4] is HCT-116 colorectal carcinoma cell line. The experiment in a line: MTS cytotoxicity assay in HCT-116 cells. In kind it is cell-based. The following applies: HCT-116, MTS, 72 hours of treatment; read-out: Growth Inhibition (GI50). How it is done: as §6, §7, §8, §9
In data set [5] the test system is A2780 ovarian cancer cell line. The experiment in a line: MTS cytotoxicity assay in A2780 cells. The data set is classed as cell-based. The following applies: 72 hours of treatment, read-out: Growth Inhibition (GI50). How it is done:
as §6, §7, §8, §9

In data set [6] the test system is HT29 colorectal carcinoma cell line. In words: MTS cytotoxicity assay in HT29 cells. The data set is classed as cell-based. Conditions: 72 hours of treatment, read-out: Growth Inhibition (GI50). Here is the method: as §6, §7, §8, §9
The subject of data set [7] is NCI-H69/AR small cell lung cancer cell line. The experiment in a line: MTS cytotoxicity assay in NCI-H69/AR cells. The data set is classed as cell-based. Conditions: 72 hours of treatment, read-out: Growth Inhibition (GI50). Here is the method:
as §6, §7, §8, §9

The nature of data set [8]: Effect of pH on CDTA-diplatinum/CDTA-monoplatinum interconversion (HPLC). In kind it is physicochemical. How it is done: Cyclohexane-trans-1,2-diaminetetraacetic-acid-diplatinum (CDTA-diplatinum) was prepared according to Example 1. Three solutions of CDTA-diplatinum were prepared: 1 mg/ml in water (pH ˜6.5) (Solution 1); 1 mg/ml in 0.01 N NaOH (pH˜9.5) (Solution 2); and 1 mg/ml in 0.01 N HCl (pH˜2) (Solution 3).

For data set [9], the system named is A2780/DPPt ovarian cancer cell line. The experiment in a line: MTS cytotoxicity assay in A2780/DPPt cells. In kind it is cell-based. The following applies: A2780/DDPT, 72 hours of treatment, read-out: Growth Inhibition (GI50).
Procedure: MTS Assay. […] Cytotoxicity was measured in six cell lines: two colorectal carcinoma cell lines, HT29 (ATCC # CCL-218) and HCT-116 (ATCC # CCL-247); two small cell lung cancer cell lines, NCI-H69 (ATCC # HTB-119) and NCI-H69/AR (ATCC # CRL-11351); and two ovarian cancer cell lines, A2780 (ECACC # 93112519) and A2780/DPPt (similar strain, A2780 cis, available at ECACC # 93112517). Viable cell number was measured using the MTS cell viability assay ([sequence] 96 AQueous One Solution Cell Proliferation Assay kit available from Promega, USA). Cell growth inhibition was quantified by measuring absorbance at 490 nm, which is directly proportional to the number of living cells in culture.
[10] abbreviates: Solution 1: 1 mg/ml in water (pH ~6.5).
Where [11] appears, read: Solution 2: 1 mg/ml in 0.01 N NaOH (pH ~9.5).
[12] abbreviates: Solution 3: 1 mg/ml in 0.01 N HCl (pH ~2).

As for `N.N.O=C([O-])C1(C(=O)[O-])CCC1.[Pt+2]` [Carboplatin, cis-diamine[1,1-cyclobutanedicarboxylato(2-)]—O,O′-platinum (II), reference compound], the values for the GI50 in [1] and in data set [2] were 9 µM and 159 µM, respectively.

For the molecule `N.N.[Cl][Pt][Cl]` [Cisplatin, cis-[PtCl2(NH3)2], reference compound], the figures for the GI50 in data set [1] and in [2] were 469 µM and 4 µM, respectively.

On to “cyclohexane-trans-1,2-diaminetetraacetic-acid-monoplatinum [CDTA-monoplatinum]”, for which the GI50 came to 10 µM in [3]; 38 µM in data set [4]; 5.57 µM in [5]; 9.71 µM in data set [1]; 6.4 µM in data set [2]; 65 µM in data set [6]. Moreover, the GI50 in data set [7] amounted to 18 µM. In addition, the “percentage of species by HPLC in a solution of CDTA-diplatinum (Example 1)” value is given as 45% in [8] (setting [10]), 99% in [8] (setting [11]) and 98% in data set [8] (setting [12]).

Take “cyclohexane-trans-1,2-diaminetetraacetic-acid-diplatinum [CDTA-diplatinum]”: the GI50 in data set [3] is 6.69 µM; in data set [9] it was 49 µM; in [4] it was 24 µM; in [5] it was 5.45 µM; in data set [1], 0.371 µM; in data set [2] it was 0.55 µM. The GI50 in [6] was 78 µM; in data set [7] it was 8.9 µM. For the same molecule, the “percentage of species by HPLC in a solution of CDTA-diplatinum (Example 1)” value in data set [8] (setting [10]) was 54%; in data set [8] (setting [11]), 1%; in data set [8] (setting [12]), 2%.
